Values of other authors as cited in patent US20200330542A1, “COMPOSITION FOR THE ACUTE AND CHRONIC TREATMENT OF CONSTIPATION” (NEILOS S.R.L., priority 2017, published 2020).

Details: human, in vivo

Substance: glucomannan
- tolerability: well tolerated without significant side effects
